Test results from EPA's ToxRefDB 2.

Test system: rat
Details: Prenatal developmental toxicity study, sprague dawley, Oral, Gavage/Intubation, dose end: 15 GD
[1] = group: developmental, systemic / in life observation / body weight / fetal weight
[2] = group: maternal, systemic / organ weight / placenta / absolute

O=C1CCCO1 [4-Butyrolactone]
LEL [1]: 50 mg/kg/day | LOAEL [1]: > 500 mg/kg/day | NEL [1]: 10 mg/kg/day | NOAEL [1]: ≥ 500 mg/kg/day | LEL [2]: 10 mg/kg/day | LOAEL [2]: > 500 mg/kg/day | NEL [2]: < 10 mg/kg/day | NOAEL [2]: ≥ 500 mg/kg/day
